In patent US20120178971A1, “Process for Isolation of a Novel Compound 5,8A-DI-1-Propyl 1-Octahydronapthalen-1-(2H) One,Trachyspermum AMI (Ajowan Caraway) Seeds” (ALIGARH MUSLIM UNIVERSITY, priority 2011, published 2012):
≈ marks a conversion by molar mass, not a printed value.

What was measured:
[1] = system: Streptococcus mutans biofilm; test: Streptococcus mutans biofilm formation; type: cell-based
Experimental: FIG. 3: Inhibitory effect of the compound on the biofilm formed by Streptococcus mutans. The % biofilm formed is the relative (%) of biofilm formed at different concentrations of the compound as compared to that in the absence of any compound. Each value is an average of triplicate assays and each bar indicates ±SD (n=3)
The biofilm formation was assessed using increasing concentration of the compound. […] As observed in the adherence, the inhibitory effect was also found to be in a dose dependent manner.

[2] = system: Streptococcus mutans; test: Inhibition of acid production (pH of culture medium); type: cell-based
Experimental: […] At a concentration of 78.13 μg/ml, there is maximum reduction in acid production as is evident by an increase in pH from 4.7 (control) to 7.5.

[3] = system: Streptococcus mutans; test: Sucrose dependent cell adherence of Streptococcus mutans; type: cell-based
Text: FIG. 2: Inhibitory effect of the compound on the extent of sucrose dependent cell adherence of Streptococcus mutans. The % cell adherence is the relative amount (%) of adherent cells at different concentrations of the compound as compared to the cells attached in the absence of any compound. Each value is an average of triplicate assays and each bar indicates ±SD (n=3).

[4] = system: Streptococcus mutans; test: Inhibition of acid production (pH of culture medium); type: cell-based; remark: listed apart in the source
[5] = system: Streptococcus mutans; test: Cell surface hydrophobicity of Streptococcus mutans; type: cell-based; conditions: 9.76 μg/ml, compared to untreated condition
Text: FIG. 5: Inhibitory effect of compound on the hyrdophobicity of Streptococcus mutans where all the concentrations were taken in triplicates.
It was shown that the cell surface hydrophobocity of S. mutans is affected following treatment with the compound obtained from Trachyspermum ammi as shown in figure.

[6] = system: crude GTF of Streptococcus mutans; test: Inhibition of water insoluble glucan synthesis; type: biochemical; conditions: 4.88 μl/ml
Experimental: FIG. 6: Inhibitory effects of the compound on insoluble glucan synthesis by crude GTF of Streptococcus mutans. The % insoluble glucan synthesis is the relative amount (%) ±SD (n=3)
The influence of different concentrations was assessed for the synthesis of insoluble glucan.

[7] = system: Streptococcus mutans; test: Determination of MIC; type: cell-based; conditions: against Streptococcus mutans
[8] = system: Streptococcus mutans biofilm; test: Confocal laser scanning microscopy of Streptococcus mutans biofilm; type: cell-based; conditions: 78.13 μ/ml, 24 h incubation
Experimental: FIG. 4: CLSM images of Streptococccus mutans biofilm formed in the presence or absence of the compound after 24 h incubation. The results are expressed as the means ±standard deviations of triplicate assays.
The biofilm of Streptococcus mutans was analyzed under the confocal laser scanning microscope to observe the changes in its morphology as shown in FIG. 4. […] The cells in the treated sample were more spread out and dispersed. Each panel of the image is a representative view of 141.145 μm by 141.145 μm along the xy axis. The xy analysis provides the biofilm surface coverage, while the z-section analyses establish the thickness of the biofilm. The control cells have biofilms that are clumped and less spread along the xy lane, show a thickness of 19.74±0.5 μm. […] The cells wee individually scattered over the surface rather than in any arrangement.

## CCCC1CCCC2(CCC)C(=O)CCCC12 (centres unmarked) [the compound, 5,8a-di-1 propyl-octahydronapthalen-1-(2H)-one]
[1]; 78.13 μg/ml
  biofilm formation: inhibited the biofilm formation
[1]; 156.25 μg/ml (MIC)
  biofilm formation: completely inhibited the biofilm formation
[2]; 2.44 μg/ml
  pH ± SD (after 24 h): 4.77 ± 1.69
[2]; 4.88 μg/ml
  pH ± SD (after 24 h): 4.84 ± 1.20
[2]; 9.76 μg/ml
  pH ± SD (after 24 h): 5.49 ± 1.05
[2]; 19.53 μg/ml
  pH ± SD (after 24 h): 5.62 ± 1.96
[2]; 39.01 μg/ml
  pH ± SD (after 24 h): 5.68 ± 6.78
[2]; 78.13 μg/ml
  pH ± SD (after 24 h): 6.48 ± 5.97
[2]; 156.25 μg/ml
  pH ± SD (after 24 h): 7.55 ± 2.65
[3]; 9.77 μg/ml
  reduction in adherence: 30%
[3]; sucrose dependent adherence
  least concentration to give at least 50% inhibition of adherence: 39.06 µg/mL
[4]; 2.44 μg/ml
  pH ± SD (onset): 7.28 ± 0.09
[4]; 4.88 μg/ml
  pH ± SD (onset): 7.24 ± 1.33
[4]; 9.76 μg/ml
  pH ± SD (onset): 7.33 ± 1.11
[4]; 19.53 μg/ml
  pH ± SD (onset): 7.38 ± 1.91
[4]; 39.01 μg/ml
  pH ± SD (onset): 7.43 ± 1.13
[4]; 78.13 μg/ml
  pH ± SD (onset): 7.43 ± 0.15
[4]; 156.25 μg/ml
  pH ± SD (onset): 7.38 ± 1.29
[5]
  cell surface hydrophobicity: drastically reduced the cell surface hydrophobicity to more than half
[6]
  reduction in the synthesis of insoluble glucan: 25%
[7]
  MIC: 156 µg/mL (≈ 661 µM)
[8]; CLSM
  biofilm morphology: complete absence of clumped cells
[8]; CLSM z-section
  thickness of the biofilm: 12.8±0.7 µm
